Data taken from PubChem BioAssay (NCI).
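96-well plates; 48 h exposure; 5 concentrations. Endpoints by linear interpolation between flanking doses. Not reached: highest tested concentration assigned. TGI: total growth inhibition.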

Columns and labels:
Test in all cases: NCI-60 cell line screen, 48 h
786-0 renal = test system: 786-0 renal
A498 renal = test system: A498 renal
ACHN renal = test system: ACHN renal
CCRF-CEM leukemia = test system: CCRF-CEM leukemia
EKVX NSCLC = test system: EKVX NSCLC
HOP-62 NSCLC = test system: HOP-62 NSCLC
HS 578T breast = test system: HS 578T breast
IGROV1 ovarian = test system: IGROV1 ovarian
M14 melanoma = test system: M14 melanoma
MCF7 breast = test system: MCF7 breast
MDA-MB-231 breast = test system: MDA-MB-231 breast
MOLT-4 leukemia = test system: MOLT-4 leukemia
NCI-H460 lung = test system: NCI-H460 lung
NCI-H522 lung = test system: NCI-H522 lung
NCI/ADR-RES ovarian = test system: NCI/ADR-RES ovarian
OVCAR-3 ovarian = test system: OVCAR-3 ovarian
OVCAR-5 ovarian = test system: OVCAR-5 ovarian
SK-OV-3 ovarian = test system: SK-OV-3 ovarian
SW-620 colon = test system: SW-620 colon
UACC-62 melanoma = test system: UACC-62 melanoma

Row | Compound | TGI (786-0 renal) [µM] | TGI (A498 renal) [µM] | TGI (ACHN renal) [µM] | TGI (CCRF-CEM leukemia) [µM] | TGI (EKVX NSCLC) [µM] | TGI (HOP-62 NSCLC) [µM] | TGI (HS 578T breast) [µM] | TGI (IGROV1 ovarian) [µM] | TGI (M14 melanoma) [µM] | TGI (MCF7 breast) [µM] | TGI (MDA-MB-231 breast) [µM] | TGI (MOLT-4 leukemia) [µM] | TGI (NCI-H460 lung) [µM] | TGI (NCI-H522 lung) [µM] | TGI (NCI/ADR-RES ovarian) [µM] | TGI (OVCAR-3 ovarian) [µM] | TGI (OVCAR-5 ovarian) [µM] | TGI (SK-OV-3 ovarian) [µM] | TGI (SW-620 colon) [µM] | TGI (UACC-62 melanoma) [µM]
1 | COc1ccc(-c2cc(-c3ccco3)c(C#N)c(=S)n2C2OC(CO)C(O)C(O)C2O)cc1 (configuration not stated) | > 100 | > 100 | > 100 | > 100 | > 100 | > 100 | > 100 | > 100 | > 100 | > 100 | > 100 | > 100 | > 100 | > 100 | > 100 | > 100 | > 100 | > 100 | > 100 | 
2 | CCCCCNC1=CC(=O)c2ccccc2C1=O | 38.9 | > 76.7 | > 100 | > 100 | > 100 | 43.5 | > 81.3 | > 100 | > 100 | > 100 | 44.3 | > 100 | > 100 | 44.3 | > 100 | 65 | > 100 | > 84.7 | > 100 | > 100
3 | O=C1NC(Cc2c[nH]c3ccccc23)C(=O)N2C(c3ccccc3)c3[nH]c4ccccc4c3C[C@@H]12 (some centres not stated) | 39.1 | > 100 | 89.2 |  | 65.2 | 38.2 | 40.6 | 50.1 | 49.1 | > 100 | 42.2 | 42.2 |  | 45.5 | 58.3 | 35.7 | 45.2 | > 100 | > 100 | 34.7
4 | COc1ccc(CCN(C)C(=O)CC(C#N)(c2ccccc2)c2ccc(OC)c(OC)c2)cc1OC (configuration not stated) | > 100 | > 100 | > 100 | > 100 | > 100 | > 100 | > 100 | > 100 | > 100 | > 100 | > 100 | > 100 | > 100 | > 100 | > 100 | > 100 | > 100 | > 100 | > 100 | > 100
5 | NC(=O)NC(=O)c1ccc(NC(=O)CBr)cc1 | 0.919 | 36 | 2.91 | 0.376 | 5.41 | 4.81 | 7.37 | 4.78 |  | 4.9 | 6.48 | 2.61 | 9.74 | 0.277 | 7.53 | 2.74 | 7.34 | 9.49 | 1.74 | 4.03
6 | Cc1nc2ccc(N=NN(C)C)cc2[nH]1 | > 100 | > 100 | > 100 | > 100 | > 100 | > 100 | > 100 | > 100 | > 100 | > 100 | > 100 | > 100 | > 100 | > 100 | > 100 | > 100 | > 100 | > 100 | > 100 | > 100
7 | CC1(C)OC(=O)CC12CCN(Cc1ccccc1)CC2 | > 100 | > 100 | > 100 | > 100 | > 100 | > 100 | > 100 | > 100 |  | > 100 | > 100 | > 100 |  | > 100 | > 100 | > 100 | > 100 | > 100 |  | > 100
8 | CC(Oc1ccc(Cl)cc1Cl)C(=O)NN1C(=O)CSC1c1ccc(Cl)cc1 (configuration not stated) | > 100 | 80 | > 100 |  | > 100 | > 100 | > 100 | > 100 | > 100 | > 100 | 97.4 | 80.1 | > 100 | > 100 | > 100 | > 100 | > 100 | > 100 | > 100 | > 100
9 | CCOC(=O)Oc1cc2c(ccn2C)c2c1c1ccccc1n2C(=O)OCC | > 100 | > 100 | > 100 | > 100 | > 100 | > 100 | > 100 | > 100 | > 100 | > 100 | > 100 | > 100 | > 100 | > 100 | > 100 | > 100 | > 100 | > 100 | > 100 | > 100
10 | N#CC(C#N)=C1CCCCc2ccc([N+](=O)[O-])cc21 | 33 | > 100 | > 100 | > 100 | > 100 | > 100 | > 100 | > 100 | > 100 | > 100 | > 100 | > 100 | > 100 | 39.9 | > 100 | > 100 | > 100 | > 100 | > 100 | > 100
11 | Cc1ccnc2c1ccc1nc3ccccc3n12 | > 100 | > 100 |  | > 100 | > 100 | > 100 | > 100 | > 100 | > 100 | > 100 | > 100 | > 100 | > 100 | 44.5 | > 100 | > 100 | > 100 |  | > 100 | > 100
12 | O=c1[nH]c2ccsc2c(=O)n1COCc1ccccc1 | > 100 | > 100 | > 100 | > 100 | > 100 | > 100 | > 100 | > 100 | > 100 | > 100 | > 100 | > 100 | > 100 | > 100 | > 100 | > 100 | > 100 |  | > 100 | 
13 | CC1=CCC[C@]2(C)C1=CC(=O)O[C@H]2c1ccoc1 | > 100 | > 100 | > 100 | > 100 | > 100 | > 100 | > 100 | > 100 |  | > 100 | > 100 | > 100 | > 100 | > 100 | > 100 | > 100 | > 100 | > 100 | > 100 | > 100
